Experimental data taken from patent US20060140970A1, “Proteic binding partners of TCTP and methods of modulating tumor reversion or cell apoptosis” (priority 2003, published 2006).

Assays:
[1] = system: 293T HEK cells; experiment: Polymerized tubulin fraction in cells, western blot anti-α-tubulin; assay type: cell-based
Procedure: […] The treated cells were rinsed twice in PBS, lyzed on plates with 250 μl of a microtubule-stabilizing buffer (20 mM Tris-HCl, pH 6.8, 140 mM NaCl, 0.5 % Nonidet P-40, 1 mM MgCl2, 2 mM EGTA, 4 μg/ml Taxol, protease inhibitors cocktail), scraped and transferred into a 1.5 ml microcentrifuge tube. Each plate was rinsed with a second 250 μl of lysis buffer, and the cell lysates were pooled. The lysis occurred for 20 minutes at room temperature. The microcentrifuge tubes containing 500 μl of lyzed cells contents were briefly mixed and then centrifuged at 14,000 rpm for 10 minutes at 4° C. Supernatants containing soluble tubulin were carefully separated from pellets containing polymerized tubulin and placed in a separate tube. The pellets were quickly rinsed with additional 20 μl of lysis buffer and resuspended in 125 μl of water. […] The concentration of proteins in the supernatants was measured by spectrophotometry at 595 nm (Bradford method). Using these soluble tubulin concentration values, 60 μg of the polymerized tubulin fractions were run on a 10% acrylamide gel (SDS-PAGE system) and transferred on a nitrocellulose membrane (Biorad) that was incubated with an anti-a-tubulin (Sigma) diluted 1/2000. Since TCTP overexpression lead to a decrease of OP18 phosphorylation, and consequently, contribute to the maintenance of OP18 in its active state, it was hypothesized that TCTP overexpression would induce the microtubule depolymerization. To confirm this hypothesis, an assay that enables the isolation and monitoring of the tubulin in a microtubule polymerized state only, but not in a free soluble state, was performed. Briefly, after lysis of cells in a hypotonic buffer containing low dose of Taxol (a microtubule stabilizing agent) and a centrifugation, the polymerized fraction of tubulin was preserved and purified. Then, the amount of polymerized tubulin in cells was monitored by western blot using an anti-α-tubulin antibody.

[2] = system: OP18 phosphorylation in 293 HEK cells; experiment: OP18 phosphorylation state, native PAGE and immunoblot; assay type: cell-based; conditions: nocodazole 250 ng/ml, control cells
Procedure: Transfection, preparation of native OP18 enriched extracts, and analysis of OP18 phosphorylation levels. 293 T cells were transfected by the standard calcium phosphate method, with the following constructs: pEYFP (Clontech, BD) (negative control), pEYFP-TCTP wide type (WT) or the mutant pEYFP-TCTP S46A/S64A. Twenty four hours after the transfection, the cells were treated with nocodazole (250 ng/ml) for 0 hour, 1 hour, 2 hours, 4 hours and 8 hours, and rinsed twice in PBS. The pellets were lyzed with 3-5 volumes of lysis buffer (50 mM Tris-HCl, pH 7.5, 250 mM NaCl, 10 mM EDTA, 1% Nonidet P-40, protease inhibitors cocktail and phosphatases inhibitors (10 mM sodium orthovanadate, 10 mM natrium fluoride (NAF)) on ice for 20 minutes, and centrifuged for 10 minutes at 14,000 rpm at 4° C. The supernatants were carefully removed and stored on ice while measuring their concentration of proteins by spectrophotometry at 595 nm (Bradford method). To enrich the concentration of OP18 in the extracts, 1.2 mg of each total extract was boiled at 75° C. for 7 minutes, put on ice for 1 minute, and centrifuged for 10 minutes at 14,000 rpm at 4° C. Then, the supernatants were precipitated in 5-6 volumes of 1% sucrose in methanol O/N at −20° C. […]

SMILES: COC(=O)Nc1nc2ccc(C(=O)c3cccs3)cc2[nH]1 [nocodazole]
- amount of polymerized tubulin ([1]; 16 hours of treatment, compared to untreated cells): no polymerized tubulin was present
- tubulin polymerization during nocodazole treatment ([1]; nocodazole 250 ng/ml, increasing time, transfected 293T HEK cells): decreased proportionally to the time length of treatment
- time from which OP18 with three (3-P) and four (4-P) phosphorylated sites is detectable [2]: ≥ 2 h
